Data set [1] has as its system human breast cancer cells (MCF-7). In words: Antiproliferative activity / cytotoxicity by sulforhodamine B assay in MCF-7 cells. The following applies: for IC50: MCF7, MCF-7 human breast cancer cells, 24 hours exposure, sulforhodamine B assay, triplicate. The format is cell-based. As for the experimental part: (§1) The ligands and corresponding metal complexes were investigated for their cytotoxicity against MCF-7 (breast cancer) cells and MCF-10A (normal human breast) cells. Cells were cultured in 96-well culture plates and exposed to 12.5 μg ml^−1, 25 μg ml^−1, 50 μg ml^−1 and 100 μg ml^−1 concentrations of ligands and complexes for 24 hours and cytotoxicity was assessed by sulforhodamine B assay. All exposures were carried out in triplicate. Briefly, the cell supernatant was completely removed and washed with phosphate buffer solution. Trichloroacetic acid (50%, […]) was added on top of fetal bovine serum-free fresh medium (200 μl) to make final concentration of 10% trichloroacetic acid and was incubated at 4 °C for one hour prior to the SRB assay. The plates were then washed with five washing cycles with water and dried completely. An aliquot of 100 μl of 0.4% sulforhodamine B dissolved in 1% trichloroacetic acid, was added to each well, and was allowed to stain for 15 minutes. The plates were again washed with five washing cycles to remove unbound dye using 1% (vol/vol) acetic acid after removing the stain. The protein bound dye was solubilized with trisbase (10 mM, pH 7.5, 200 μl), after air drying. The plates were then shaken for 60 minutes to homogenize the dye solution. The absorbance was then measured at 540 nm using Synergy HTBioTek microplate reader. The percentage viability was calculated by the equation given below.1 [drawing 1]
(§2) Three ligands and three novel complexes were assayed for their antiproliferative activity in human breast cancer cells (MCF-7) and normal human breast cells (MCF-10A). In this study, the cell lines were exposed to synthesized compounds in a concentration gradient up to […] and the half maximal inhibitory concentration (IC50) was determined for each compound. Cytotoxicity was measured with sulforhodamine B assay.

Data set [2] relates to normal human breast cells (MCF-10A). In words: Antiproliferative activity / cytotoxicity by sulforhodamine B assay in MCF-10A cells. The data set is classed as cell-based. The following applies: MCF-10A normal human breast cells, 24 hours exposure, triplicate. As for the experimental part:
as §1, §2

For the molecule `O=S(=O)(c1cccc2ccccc12)N(Cc1ccccn1)Cc1ccccn1` [N(SO2(1-nap))dpa], the “shape of cytotoxicity curve” value in data set [1] (Fig. S3, IC50 graphs against MCF-7) is recorded as “biphasic cytotoxicity curve”. Besides, the concentration for half-maximal inhibition (IC50) in data set [1] came to 92 ± 0.06 µM; in data set [2], 1583 ± 0.04 µM.
For `O=S(=O)(c1ccc2ccccc2c1)N(Cc1ccccn1)Cc1ccccn1` [N(SO2(2-nap))dpa], the IC50 in data set [1] is 18.1 ± 0.1 µM; in data set [2] it was 581 ± 0.04 µM.
The corresponding values for `O=S(=O)(N1CCCCC1)N(Cc1ccccn1)Cc1ccccn1` [N(SO2pip)dpa] are 21.2 ± 0.1 µM and 948.5 ± 0.04 µM.

The values above are taken from PMC9033217, “Synthesis, characterization and biological evaluation of dipicolylamine sulfonamide derivatized platinum complexes as potential anticancer agents” (RSC Advances, 2021).
